Measurements from ChEMBL document CHEMBL5726364, “Uracil derivatives as AXL and c-MET kinase inhibitors” (2017).

Target: T1, Tyrosine-protein kinase receptor UFO (Homo sapiens, UniProt P30530)
T1 sequence (P30530 whole entry): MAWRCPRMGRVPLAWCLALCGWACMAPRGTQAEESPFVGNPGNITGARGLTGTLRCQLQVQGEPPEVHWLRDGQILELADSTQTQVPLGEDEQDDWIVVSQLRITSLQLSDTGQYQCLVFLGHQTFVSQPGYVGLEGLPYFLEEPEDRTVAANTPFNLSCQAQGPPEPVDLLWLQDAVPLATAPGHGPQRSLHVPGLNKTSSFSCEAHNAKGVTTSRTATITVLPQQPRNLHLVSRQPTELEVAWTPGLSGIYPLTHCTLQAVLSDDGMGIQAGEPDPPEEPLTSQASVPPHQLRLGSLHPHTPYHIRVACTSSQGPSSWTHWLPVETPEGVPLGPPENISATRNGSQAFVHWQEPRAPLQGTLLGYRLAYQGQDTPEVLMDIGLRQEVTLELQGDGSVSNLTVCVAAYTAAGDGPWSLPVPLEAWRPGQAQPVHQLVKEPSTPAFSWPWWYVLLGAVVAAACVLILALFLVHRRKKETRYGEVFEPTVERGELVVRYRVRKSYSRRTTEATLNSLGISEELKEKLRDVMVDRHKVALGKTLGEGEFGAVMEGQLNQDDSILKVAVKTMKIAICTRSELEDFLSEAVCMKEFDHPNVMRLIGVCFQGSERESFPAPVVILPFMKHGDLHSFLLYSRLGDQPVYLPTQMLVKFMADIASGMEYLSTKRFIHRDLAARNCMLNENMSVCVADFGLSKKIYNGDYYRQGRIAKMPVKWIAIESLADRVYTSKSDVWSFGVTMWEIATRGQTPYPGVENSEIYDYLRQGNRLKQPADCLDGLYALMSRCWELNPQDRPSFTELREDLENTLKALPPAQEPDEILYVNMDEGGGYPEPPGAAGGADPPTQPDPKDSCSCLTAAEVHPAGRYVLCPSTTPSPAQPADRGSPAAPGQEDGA
Assay: Kinase Assay: The ability of compounds to inhibit the kinase activity of recombinant human baculovirus-expressed AXL was measured by homogeneous TRF (HTRF) using Cisbio's KinEASE assay system in white 384-well Optiplates. Assay buffer contained 1 mM DTT, 2 mM MnCl2, 2% DMSO, 50 nM supplement enzymatic buffer, and 1× enzymatic buffer. A 2× concentration of tyrosine kinase (TK) substrate-biotin/ATP mixture made in assay buffer was added to plates at 10 μL/well using the Multidrop Combi (Thermo Fisher Scientific, Waltham, Mass.). […] Compounds (100 nL), diluted in 100% DMSO on the Biomek FX, (Beckman Coulter, Inc., Brea, Calif.), were transferred to the assay plates using the Biomek FX pintool (2.5% final DMSO in assay). A 2× concentration (final=12 ng/mL) of GST-AXL (diluted in assay buffer) was added to plates at 10 uL/well using the Multidrop Combi. Plates were sealed, briefly shaken and incubated at 25° C. for 30 minutes. […] Plates were sealed, briefly shaken and incubated at 25° C. for 1 hour.

Row | IC50 [nM] | SMILES
1 | < 10 | CCn1cc(C(=O)Nc2ccc(Oc3ccnc4cc(OC)c(OC)cc34)c(Cl)c2)c(=O)n(-c2ccc(F)cc2)c1=O
2 | < 10 | CCn1nc(C(=O)Nc2ccc(Oc3ccnc4cc(OC)c(OC)cc34)cn2)c(=O)n(-c2ccc(F)cc2)c1=O
3 | < 10 | C=CCn1cc(C(=O)Nc2ccc(Oc3ccnc4cc(OC)c(OC)cc34)c(F)c2)c(=O)n(CC=C)c1=O
